Paper PMC13183420, “Sustained Action of Imapextide, A Glucagon-Like Peptide-1 Receptor Antagonist, in Healthy Volunteers” (The Journal of Clinical Endocrinology and Metabolism, 2025)

Tests used:
healthy volunteers = experiment: Safety and tolerability, drug-drug interaction part; assay type: in vivo, human; conditions: n = 14; for TRAE, Acetaminophen-related: acetaminophen 1000 mg; for TRAE, Rosuvastatin-related: rosuvastatin 10 mg
Procedure: This phase 1, randomized, double-blind, placebo-controlled study (NCT06036784) enrolled healthy adults (aged 18-65 years) with a body mass index of 18 to 30 kg/m^2, stable body weight for 3 months or longer, and without diabetes. Potential participants were ineligible if they had type 1 or type 2 diabetes or prediabetes (based on medical history, relevant concomitant medications [including oral or injectable antidiabetic medications], fasting plasma glucose concentrations ≥100 mg/dL or glycated hemoglobin concentrations ≥5.7% [American Diabetes Association thresholds for diabetes and prediabetes ([18])]).
(§1) The DDI portion of the study included 1 cohort of 14 HVs and consisted of 2 study periods. […] Blood samples were also collected to measure clearance of the endogenous biomarker for hepatic OATP inhibition, coproporphyrin-I (CP-I), to assess potential inhibition of OATP1B1/3 by imapextide. […] The primary objective of the DDI portion was to evaluate the PK of rosuvastatin and acetaminophen in the presence and absence of imapextide.
The primary objective of the SAD and MAD portions of the study was to evaluate the safety and tolerability of imapextide; safety was also evaluated in the DDI portion. Safety assessments included incidence and severity of treatment-emergent adverse events (TEAEs), changes in physical examination findings, clinical laboratory abnormalities (serum chemistry, hematology, urinalysis, and coagulation; abnormalities were defined as deviation from the laboratory normal range), and potential effect on vital sign measures. All blood samples for safety analyses were collected after an overnight fast (≥8 hours). If present, data on ISRs were collected using a dedicated form and rated on severity according to the US Food and Drug Administration toxicity scale for vaccines (for details on severity grading, see Supplementary Table S1) ([20], [21]). All ISRs were evaluated, regardless of whether they were reported as TEAEs by the investigator. In the 30-mg-R cohort, participants with ISRs grade 2 or worse underwent a dermatology consultation, including a potential skin biopsy at the discretion of the dermatologist.

OATP1B1/OATP1B3 = experiment: Drug-drug interaction: rosuvastatin PK in presence or absence of imapextide; assay type: in vivo, human; conditions: plasma, n = 14, statistic in brackets not given
Excerpt: as §1
Imapextide was also examined as a perpetrator of OATP1B1/3, which would affect the hepatic clearance of rosuvastatin and CP-I. PK assessments for rosuvastatin included Cmax, tmax, AUC from 0 to 72 hours (AUC0-72), and AUCinf. PK assessments for CP-I included Cmax, tmax, AUC0-72, and AUC from 0 to 108 hours (AUC0-108).

[1] = DDI Period 2 (RBX + APAP + Imapextide 45 mg)
[2] = Period 1 (RBX 10 mg + APAP 1000 mg), no imapextide
[3] = Period 2 (RBX 10 mg + APAP 1000 mg + imapextide 45 mg given 2 days before)

| AUC0-72 (OATP1B1/OATP1B3; [2]) | AUC0-inf (OATP1B1/OATP1B3; [2]) | Cmax (OATP1B1/OATP1B3; [2]) | tmax (OATP1B1/OATP1B3; [2]) | AUC0-72 (OATP1B1/OATP1B3; [3]) | AUC0-inf (OATP1B1/OATP1B3; [3]) | Cmax (OATP1B1/OATP1B3; [3]) | tmax (OATP1B1/OATP1B3; [3]) | Structure (SMILES) | TRAE, Acetaminophen-related (healthy volunteers; DDI Period 1 (RBX + APAP)) | TRAE, Acetaminophen-related (healthy volunteers; [1]) | TRAE, Rosuvastatin-related (healthy volunteers; DDI Period 1 (RBX + APAP)) | TRAE, Rosuvastatin-related (healthy volunteers; [1]) |
| --- | --- | --- | --- | --- | --- | --- | --- | --- | --- | --- | --- | --- |
|  |  |  |  |  |  |  |  | CC(=O)Nc1ccc(O)cc1 [Acetaminophen, acetaminophen] | 0 n (%) | 0 n (%) |  |  |
| 27,660 (56.1) h*pg/mL | 36,090 (50.3) h*pg/mL | 2307 (85.1) pg/mL | 2.80 (84.7) h | 31,730 (48.3) h*pg/mL | 32,490 (49.4) h*pg/mL | 2962 (61.9) pg/mL | 2.72 (38.1) h | CC(C)c1nc(N(C)S(C)(=O)=O)nc(-c2ccc(F)cc2)c1/C=C/[C@@H](O)C[C@@H](O)CC(=O)O [Rosuvastatin, rosuvastatin] |  |  | 0 n (%) | 0 n (%) |
